The assay addresses human recombinant p56^lck (Homo sapiens, UniProt P06239). Nature of the assay: Inhibition of T-cell tyrosine kinase p56^lck (incorporation of 33P from [γ-^33 P] ATP into peptide substrate). Format: biochemical. Particulars: 10 μM ATP, 20 μM peptide substrate, 30° C., 60 minutes, pH 7.5. An excerpt:
As mentioned earlier, the compounds of formula I, the pharmaceutically acceptable salts of basic compounds of formula I with acids, and the pharmaceutically acceptable salts of acidic compounds of formula I with bases, are all inhibitors of the T-cell tyrosine kinase p56^lck which will down-regulate T-cell activation leading to immunosuppression and decrease inflammation. Therefore, the compounds of the invention are anti-inflammatory agents which can be used in combating the inflammatory condition which occurs in various diseases, as well as immunosuppressives which can be used, for example, for preventing graft rejection in transplantation therapy.
Reaction mixtures (25 μl) containing human recombinant p56^lck, 10 mM MnCl2, 10-μM ATP, 0.2 mM sodium vanadate, 20 μM peptide substrate (AlaGluGluGluIleTyr-GlyGlu-PheGluAlaLysLysLysLys, [γ-^33 P] ATP (1000-2000 cpm/pmol) in 25 mM HEPES buffer (pH 7.5) and 0.1% Triton X-100 are incubated at 30° C. for 60 minutes and the reaction is then stopped by the addition of 10 μl of 2% orthophosphoric acid. Radiolabelled peptide is separated from unreacted [γ-^33 P] ATP by filtration through Millipore Multiscreen phosphocellulose cation exchange paper filters. Bound peptide is washed with 0.5% orthophosphoric acid and incorporated radioactivity is determined by scintillation spectrometry.
The degree of enzyme blockade at each concentration of test compound is calculated from the following equation: [formula]
The IC50 value is that concentration of test compound which reduces by 50% the protein kinase-induced incorporation of the radiolabel under the test conditions described earlier.

This is an account of results in patent US6150373A, “Bicyclic nitrogen heterocycles” (Hoffmann-La Roche Inc., priority 1998, dated 2000).

Structures can show the parent of a compound that is named as a salt.

Usually IC50 stands for the midpoint of a concentration-inhibition curve.

Chain of human recombinant p56^lck (P06239 whole entry): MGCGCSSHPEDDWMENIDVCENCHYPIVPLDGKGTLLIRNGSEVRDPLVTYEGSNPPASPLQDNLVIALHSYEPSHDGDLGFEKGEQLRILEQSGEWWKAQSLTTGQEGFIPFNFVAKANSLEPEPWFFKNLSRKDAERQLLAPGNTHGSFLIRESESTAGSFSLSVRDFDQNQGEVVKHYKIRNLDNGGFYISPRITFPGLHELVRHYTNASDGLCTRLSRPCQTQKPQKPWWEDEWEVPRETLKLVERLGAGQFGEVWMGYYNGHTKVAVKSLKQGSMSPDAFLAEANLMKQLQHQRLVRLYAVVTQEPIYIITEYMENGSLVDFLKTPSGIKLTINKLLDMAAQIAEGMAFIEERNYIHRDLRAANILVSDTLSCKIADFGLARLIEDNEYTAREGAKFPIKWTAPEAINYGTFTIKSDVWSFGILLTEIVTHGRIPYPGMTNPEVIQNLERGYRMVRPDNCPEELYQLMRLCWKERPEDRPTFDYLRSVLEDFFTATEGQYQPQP

In the case of `NCCc1cccc(N2C(=O)N(c3ccccc3Br)Cc3cnc(Nc4ccccc4)nc32)c1` [Example 50, 1-[3-(2-aminoethyl)phenyl]-7-anilino-3-(2-bromophenyl)-3,4-dihydropyrimido[4,5-d]pyrimidin-2(1H)-one], the IC50 came to 6 nM.
In the case of `CCN(CC)CCOc1ccc(Nc2ncc3c(n2)N(Cc2cccnc2)C(=O)N(c2c(Cl)cccc2Cl)C3)cc1` [Example 10, 3-(2,6-dichlorophenyl)-7-[4-[2-(diethylamino)ethoxy]anilino]-3,4-dihydro-1-[(3-pyridyl)-methyl]pyrimido[4,5-d]pyrimidin-2(1H)-one trifluoroacetate] it was 19 nM; in that of `CCN(CC)CCOc1ccc(Nc2ncc3c(n2)N(c2ccccc2)C(=O)N(c2c(Cl)cccc2Cl)C3)cc1` [Example 7, 3-(2,6-dichlorophenyl)-7-[4-[2-(diethylamino)ethoxy]anilino]-3,4-dihydro-1-phenylpyrimido[4,5-d]pyrimidin-2(1H)-one], 0.6 nM; in that of `CCN(CC)CCOc1ccc(Nc2ncc3c(n2)N(C)C(=O)N(c2c(Cl)cccc2Cl)C3)cc1` [Example 1, 3-(2,6-dichlorophenyl)-7-[4-[2-(diethylamino)ethoxy]anilino]-3,4-dihydro-1-methylpyrimido[4,5-d]pyrimidin-2(1H)-one], 10 nM.
Then `O=C1N(c2ccccc2Br)Cc2cnc(Nc3ccccc3)nc2N1c1ccc(CO)cc1` [Example 63, 7-anilino-3-(2-bromophenyl)-3,4-dihydro-1-[4-(hydroxymethyl)phenyl]pyrimido[4,5-d]pyrimidin-2(1H)-one], with 17 nM; and `CCN(CC)CCOc1ccc(Nc2ncc3c(n2)N(c2cccc(CCN(C)C)c2)C(=O)N(c2ccc(Cl)cc2Cl)C3)cc1` [Example 82, 3-(2,4-dichlorophenyl)-7-[4-[2-(diethylamino)ethoxy]anilino]-3,4-dihydro-1-[3-(2-(dimethylamino)ethyl)phenyl]pyrimido[4,5-d]pyrimidin-2(1H)-one], with 0.4 nM; and `CCC(CC)(CN)c1cccc(N2C(=O)N(c3c(Cl)cccc3Cl)Cc3cnc(Nc4ccccc4)nc32)c1` [Example 85, 1-[3-(1-aminomethyl-1-ethyl-propyl)-phenyl]-3-(2,6-dichloro-phenyl)-7-phenylamino-3,4-dihydro-pyrimido[4,5-d]pyrimidin-2(1H)-one trifluoroacetate], with 7 nM.
On to `O=C1N(c2c(Cl)cccc2Cl)Cc2cnc(Nc3ccncc3)nc2N1c1ccccc1` [Example 22, 3-(2,6-dichlorophenyl)-3,4-dihydro-1-phenyl-7-[(4-pyridyl)amino]pyrimido[4,5-d]pyrimidin-2(1H)-one], for which the IC50 amounted to 265 nM.
In the case of `NCCc1cccc(N2C(=O)N(c3c(Cl)cccc3Cl)Cc3cnc(Nc4ccccc4)nc32)c1` [Example 38, 1-[3-(2-aminoethyl)phenyl]-7-anilino-3-(2,6-dichlorophenyl)-3,4-dihydropyrimido[4,5-d]pyrimidin-2(1H)-one] it was 0.03 nM.
